SMILES strings stand for the structures.

Data set [1] can be described thus: Drug release time study of encapsulated cisplatin by UV-vis absorbance at 300 nm. The data set is classed as physicochemical. How it is done:
A drug release time study was performed on encapsulated cisplatin (i.e., cisplatin/delivery vehicle) to assess the time for complete release of the encapsulated drug from the delivery vehicle. UV-vis spectroscopy was used to monitor the change in absorbance in peaks associated with cisplatin over time.
5 mg of cisplatin was placed in a glass vial and 10 mL of water (10 mL) added. The vial was sonicated in a Bransonic Ultrasonic Cleaner (115 v, 50/60 HZ, […] transducer) for about 5 min to completely dissolve the cisplatin. 50 mg of the delivery vehicle (PEG400)4D4^M was placed in a separate vial and 10 mL of water added. Upon shaking, the polymer dissolved immediately. The cisplatin solution was added to the delivery vehicle solution drop-wise with sonication. After the mixing was complete, a UV-vis spectrum was recorded. The solution was further sonicated for 1 hr and monitored with UV-vis spectroscopy at intervals of 10 min to examine the encapsulation process. After 1 hr, sonication was stopped and incubation was allowed to continue at room temperature without shaking. UV-vis spectra were recorded at 20 min intervals for one hr, followed by 3 hours intervals for the next 24 hrs. After 24 hrs, UV-vis spectra were recorded at random intervals for several days to monitor the release time of the cisplatin. For reference, another solution of pure cisplatin was prepared at a similar concentration, and UV-vis spectra were recorded for the un-encapsulated cisplatin solution at similar intervals as with the encapsulated cisplatin solution. In about 200 hours ([…]), the absorbance of the encapsulated cisplatin solution dropped to the same level as that of the un-encapsulated cisplatin solution. This was viewed as the complete release of encapsulated cisplatin from the vehicle. All data provided in Table 4 were collected at a wavelength of 300 nm.

The nature of data set [2]: Microscopy of dried drops: crystal formation as evidence of cisplatin encapsulation. The data set is classed as physicochemical. To be noted: one drop on glass slide, room temperature, open air. The source says: The cisplatin/delivery vehicle samples were also examined under a microscope to further investigate the encapsulation. Specifically, a comparison was made between encapsulated and un-encapsulated cisplatin.
The cisplatin/delivery vehicle samples were also examined under a microscope to further investigate the encapsulation. A comparison was made between encapsulated and un-encapsulated cisplatin.

The conditions of data set [3]: one drop of ethanol solution dried on glass slide.
Source text: To verify the encapsulation, samples were examined under the microscope and a comparison was made between the paclitaxel solution alone and the paclitaxel/delivery vehicle solution. In particular, one drop of each solution was placed on a separate glass slide and the ethanol was allowed to evaporate at room temperature in the open-air. After complete evaporation of the ethanol, dry sample spots were covered and sealed by cover slides and both slides were examined under microscope.
For microscopic analysis, one drop of each solution (i.e., paclitaxel alone paclitaxel/delivery vehicle solutions) and was placed on a separate glass slide. The ethanol was allowed to evaporate at room temperature in the open-air. After complete evaporation of the ethanol, dry sample spots were covered and sealed by cover slides and both slides were examined under the microscope.

`N.N.[Cl][Pt][Cl]` [un-encapsulated cisplatin, cisplatin]: the Absorbance in data set [1] (time 0.00 hrs) turned out to be 0.18; in data set [1] (time 0.17 hrs), 0.17; in data set [1] (time 0.33 hrs), 0.16; in data set [1] (time 0.50 hrs), 0.16; in data set [1] (time 0.67 hrs), 0.16; in data set [1] (time 0.83 hrs), 0.16. Further, the Absorbance is reported as 0.16 in data set [1] (time 1.00 hrs); 0.16 in data set [1] (time 1.33 hrs); 0.16 in data set [1] (time 1.67 hrs); 0.16 in data set [1] (time 2.00 hrs); 0.16 in data set [1] (time 3.00 hrs); 0.15 in data set [1] (time 21.00 hrs). The Absorbance in data set [1] (time 24.00 hrs), in data set [1] (time 42.00 hrs), in data set [1] (time 45.00 hrs), in data set [1] (time 72.00 hrs), in data set [1] (time 88.00 hrs) and in data set [1] (time 120.00 hrs) was 0.15 throughout. Further, the Absorbance in data set [1] (time 174.00 hrs) and in data set [1] (time […]) was 0.15 in each case. Moreover, the “crystal formation as water evaporates (microscope)” value in data set [2] is “formed crystals”.
Take `CC(=O)O[C@H]1C(=O)[C@@]2(C)[C@H]([C@H](OC(=O)c3ccccc3)[C@]3(O)C[C@H](OC(=O)[C@H](O)[C@@H](NC(=O)c4ccccc4)c4ccccc4)C(C)=C1C3(C)C)[C@]1(OC(C)=O)CO[C@@H]1C[C@@H]2O` [un-encapsulated paclitaxel, paclitaxel]: the “fluorescence when exposed to fluorescent light (microscope)” value in data set [3] is “shows fluorescence activity”.

(Values after patent US7745547B1, “Multi-arm cyclic or cubic siloxane-based formulations for drug delivery” (Becton, Dickinson and Company, priority 2005, dated 2010).)
